Experimental data from PubChem BioAssay (NCI).
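Results reflect a 48-hour exposure of cells in 96-well plates to compound at five concentrations. GI50 marks 50% less growth. Definition used: TGI = concentration required for complete inhibition of growth.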

Key:
Experiment in all cases: DTP human tumour cell line panel, 48 h
KM12 colon = test system: KM12 colon
SNB-19 CNS = test system: SNB-19 CNS
A498 renal = test system: A498 renal
TK-10 renal = test system: TK-10 renal
U251 CNS = test system: U251 CNS
SNB-75 CNS = test system: SNB-75 CNS
SF-295 CNS = test system: SF-295 CNS
NCI-H460 lung = test system: NCI-H460 lung
OVCAR-5 ovarian = test system: OVCAR-5 ovarian
NCI-H226 lung = test system: NCI-H226 lung

O=C(O)C1C2CC3CC2CC31 (stereo not given)
TGI (KM12 colon): > 100 µM
TGI (SNB-19 CNS): > 100 µM
TGI (A498 renal): > 100 µM
TGI (TK-10 renal): > 100 µM
TGI (U251 CNS): > 100 µM
TGI (SNB-75 CNS): > 100 µM
TGI (SF-295 CNS): > 100 µM
TGI (NCI-H460 lung): > 100 µM
TGI (OVCAR-5 ovarian): > 100 µM

CCOc1ccc(N2C(N)=NC(N)=NC2(C)C)cc1
GI50 (KM12 colon): 74 µM
TGI (KM12 colon): > 100 µM
GI50 (SNB-19 CNS): 55.8 µM
TGI (SNB-19 CNS): > 100 µM
GI50 (TK-10 renal): > 100 µM
TGI (TK-10 renal): > 100 µM
GI50 (U251 CNS): 36.6 µM
TGI (U251 CNS): > 100 µM
GI50 (SNB-75 CNS): 60.5 µM
TGI (SNB-75 CNS): > 100 µM
GI50 (NCI-H226 lung): > 100 µM
TGI (NCI-H226 lung): > 100 µM
GI50 (SF-295 CNS): 48.1 µM
TGI (SF-295 CNS): > 100 µM
GI50 (NCI-H460 lung): 39.8 µM
TGI (NCI-H460 lung): > 100 µM
GI50 (OVCAR-5 ovarian): 39.7 µM
TGI (OVCAR-5 ovarian): > 100 µM

O=C1C=Cc2noc3cccc1c23
TGI (KM12 colon): 19.1 µM
TGI (SNB-19 CNS): 31.3 µM
TGI (A498 renal): 27.5 µM
TGI (TK-10 renal): 32.3 µM
TGI (U251 CNS): 26.4 µM
TGI (SNB-75 CNS): 25.8 µM
TGI (NCI-H226 lung): 35.1 µM
TGI (SF-295 CNS): 32.8 µM
TGI (OVCAR-5 ovarian): 28.4 µM

C/C(=N\n1c(N)c(C#N)c(-c2ccc(Cl)cc2)c(C#N)c1=O)c1cccnc1
GI50 (KM12 colon): > 100 µM
TGI (KM12 colon): > 100 µM
GI50 (SNB-19 CNS): > 100 µM
TGI (SNB-19 CNS): > 100 µM
GI50 (TK-10 renal): > 100 µM
TGI (TK-10 renal): > 100 µM
GI50 (U251 CNS): > 100 µM
TGI (U251 CNS): > 100 µM
GI50 (SNB-75 CNS): 14.6 µM
TGI (SNB-75 CNS): 99.6 µM
GI50 (NCI-H226 lung): > 100 µM
TGI (NCI-H226 lung): > 100 µM
GI50 (SF-295 CNS): > 100 µM
TGI (SF-295 CNS): > 100 µM
GI50 (NCI-H460 lung): > 100 µM
TGI (NCI-H460 lung): > 100 µM
GI50 (OVCAR-5 ovarian): > 100 µM
TGI (OVCAR-5 ovarian): > 100 µM

Clc1cccc(C2SCc3nc4ccccc4n32)c1Cl (stereo not given)
TGI (SNB-19 CNS): 33.1 µM
TGI (A498 renal): 29.2 µM
TGI (TK-10 renal): 29.2 µM
TGI (U251 CNS): 31.7 µM
TGI (SNB-75 CNS): 18.6 µM
TGI (SF-295 CNS): 30.4 µM
TGI (NCI-H460 lung): 34.6 µM
TGI (OVCAR-5 ovarian): 27.1 µM

COS(=O)CCOC(=O)c1ccccc1SSc1ccccc1C(=O)OCCS(=O)OC (stereo not given)
TGI (KM12 colon): > 100 µM
TGI (SNB-19 CNS): > 100 µM
TGI (A498 renal): > 100 µM
TGI (TK-10 renal): > 100 µM
TGI (U251 CNS): > 100 µM
TGI (SNB-75 CNS): 70.2 µM
TGI (SF-295 CNS): > 100 µM
TGI (NCI-H460 lung): > 100 µM
TGI (OVCAR-5 ovarian): > 100 µM

c1ccc(CN(Cc2ccccn2)Cn2cccn2)nc1
TGI (KM12 colon): > 100 µM
TGI (SNB-19 CNS): > 100 µM
TGI (A498 renal): > 100 µM
TGI (TK-10 renal): > 100 µM
TGI (U251 CNS): > 100 µM
TGI (SNB-75 CNS): > 100 µM
TGI (SF-295 CNS): > 100 µM
TGI (NCI-H460 lung): > 100 µM

CC1=CC(=O)c2[nH]c3ccccc3c2C1=O
GI50 (KM12 colon): 4.4 µM
TGI (KM12 colon): 9.01 µM
TGI (SNB-19 CNS): > 25 µM
GI50 (TK-10 renal): 5.04 µM
TGI (TK-10 renal): 9.24 µM
GI50 (U251 CNS): 15.4 µM
TGI (U251 CNS): > 25 µM
GI50 (SNB-75 CNS): 4.36 µM
TGI (SNB-75 CNS): 8.28 µM
GI50 (NCI-H226 lung): 6.54 µM
TGI (NCI-H226 lung): 22.7 µM
GI50 (SF-295 CNS): 4.32 µM
TGI (SF-295 CNS): 7.93 µM
GI50 (NCI-H460 lung): 8.11 µM
TGI (NCI-H460 lung): > 25 µM
TGI (OVCAR-5 ovarian): 12.2 µM

CC(C)c1cc2c(O)c(c1)Cc1cc(C(C)C)cc(c1O)Cc1cc(C(C)C)cc(c1O)Cc1cc(C(C)C)cc(c1O)Cc1cc(C(C)C)cc(c1O)Cc1cc(C(C)C)cc(c1O)C2
TGI (KM12 colon): > 100 µM
TGI (SNB-19 CNS): > 100 µM
TGI (TK-10 renal): > 100 µM
TGI (U251 CNS): > 100 µM
TGI (SNB-75 CNS): > 100 µM
TGI (SF-295 CNS): > 100 µM
TGI (NCI-H460 lung): > 100 µM
TGI (OVCAR-5 ovarian): > 100 µM

C(=C1/CCCCC([n+]2ccccc2)=N1)/c1ccccc1
TGI (U251 CNS): > 100 µM
TGI (SNB-75 CNS): > 100 µM
TGI (NCI-H226 lung): > 100 µM
TGI (SF-295 CNS): > 100 µM
TGI (NCI-H460 lung): > 100 µM
TGI (OVCAR-5 ovarian): > 100 µM

Cc1cc(C(=O)NCCN(C)C)c2nc3ccccc3nc2c1
TGI (KM12 colon): 23.8 µM
TGI (SNB-19 CNS): 73.5 µM
TGI (A498 renal): 16.4 µM
TGI (TK-10 renal): > 59.1 µM
TGI (U251 CNS): 33.3 µM
TGI (SNB-75 CNS): 48.3 µM
TGI (NCI-H226 lung): 14.3 µM
TGI (SF-295 CNS): > 27.8 µM
TGI (OVCAR-5 ovarian): 15.2 µM

OCC(O)C(OC1OC(CO)C(O)C(O)C1O)c1nn(-c2ccc(F)cc2)c2nc3cc(Cl)c(Cl)cc3cc12 (stereo not given)
TGI (KM12 colon): > 100 µM
TGI (SNB-19 CNS): > 100 µM
TGI (A498 renal): > 100 µM
TGI (TK-10 renal): > 100 µM
TGI (U251 CNS): > 100 µM
TGI (SNB-75 CNS): > 100 µM
TGI (SF-295 CNS): > 100 µM
TGI (NCI-H460 lung): > 100 µM
TGI (OVCAR-5 ovarian): > 100 µM

Cc1ccc(C)c2sc3cc(=O)ccc-3nc12
TGI (KM12 colon): > 100 µM
TGI (SNB-19 CNS): > 100 µM
TGI (TK-10 renal): 66.8 µM
TGI (U251 CNS): > 100 µM
TGI (SNB-75 CNS): > 100 µM
TGI (NCI-H226 lung): > 100 µM
TGI (SF-295 CNS): > 100 µM
TGI (NCI-H460 lung): > 100 µM
TGI (OVCAR-5 ovarian): 74.1 µM

Fc1cc(Nc2ccc3c(OCCCN4CCOCC4)cccc3n2)ccc1Cl
GI50 (KM12 colon): 2.3 µM
TGI (KM12 colon): 5.46 µM
GI50 (SNB-19 CNS): 2.21 µM
TGI (SNB-19 CNS): 5.29 µM
GI50 (A498 renal): 2.42 µM
TGI (A498 renal): 6.73 µM
GI50 (TK-10 renal): 2.01 µM
TGI (TK-10 renal): 4.1 µM
GI50 (U251 CNS): 1.85 µM
TGI (U251 CNS): 3.75 µM
GI50 (SNB-75 CNS): 1.86 µM
TGI (SNB-75 CNS): 6.2 µM
GI50 (NCI-H226 lung): 2.76 µM
TGI (NCI-H226 lung): 7.83 µM
GI50 (SF-295 CNS): 1.97 µM
TGI (SF-295 CNS): 3.96 µM
GI50 (OVCAR-5 ovarian): 2.13 µM
TGI (OVCAR-5 ovarian): 4.88 µM

NC(=O)c1ccc(-c2c3ccccc3cc3c2ccc2ccccc23)cc1
GI50 (KM12 colon): 1.32 µM
TGI (KM12 colon): 15.2 µM
GI50 (SNB-19 CNS): 5.51 µM
TGI (SNB-19 CNS): 46.9 µM
GI50 (A498 renal): 3.71 µM
TGI (A498 renal): 24 µM
GI50 (U251 CNS): 3.61 µM
TGI (U251 CNS): 19 µM
GI50 (SNB-75 CNS): 2.19 µM
TGI (SNB-75 CNS): 9.15 µM
GI50 (NCI-H226 lung): 6.97 µM
TGI (NCI-H226 lung): 52.3 µM
GI50 (SF-295 CNS): 5.11 µM
TGI (SF-295 CNS): 31 µM
GI50 (NCI-H460 lung): 3.31 µM
TGI (NCI-H460 lung): 14.9 µM
GI50 (OVCAR-5 ovarian): 14.3 µM
TGI (OVCAR-5 ovarian): > 100 µM

COc1ccc(/C=C/CO)cc1OC
TGI (KM12 colon): > 100 µM
TGI (SNB-19 CNS): > 100 µM
TGI (TK-10 renal): > 100 µM
TGI (U251 CNS): > 100 µM
TGI (SNB-75 CNS): > 100 µM
TGI (NCI-H226 lung): > 100 µM
TGI (SF-295 CNS): > 100 µM
TGI (OVCAR-5 ovarian): > 100 µM

CC1=C[C@H]2C[C@@]3(C)O[C@@H]([C@]4(C)CC[C@H]([C@@H](C)C(=O)O)OO4)CC3C(C)(C)[C@H]2CC1 (stereo not given in full)
TGI (KM12 colon): 1.65 µM
TGI (SNB-19 CNS): 3.28 µM
TGI (TK-10 renal): 4.28 µM
TGI (U251 CNS): 3.01 µM
TGI (SNB-75 CNS): 2.35 µM
TGI (NCI-H226 lung): 3.82 µM
TGI (SF-295 CNS): 3.44 µM
TGI (NCI-H460 lung): 2.74 µM
TGI (OVCAR-5 ovarian): 4.67 µM

CCn1c(-c2cc3ccccc3cc2OC(=O)c2ccccc2)n[nH]c1=S
GI50 (KM12 colon): 42.3 µM
TGI (KM12 colon): > 50 µM
GI50 (SNB-19 CNS): > 50 µM
TGI (SNB-19 CNS): > 50 µM
GI50 (TK-10 renal): > 50 µM
TGI (TK-10 renal): > 50 µM
GI50 (U251 CNS): > 50 µM
TGI (U251 CNS): > 50 µM
GI50 (SNB-75 CNS): > 50 µM
TGI (SNB-75 CNS): > 50 µM
GI50 (NCI-H226 lung): > 50 µM
TGI (NCI-H226 lung): > 50 µM
GI50 (SF-295 CNS): 27 µM
TGI (SF-295 CNS): > 50 µM
GI50 (OVCAR-5 ovarian): > 50 µM
TGI (OVCAR-5 ovarian): > 50 µM
